Experimental data taken from patent US20030083381A1, “Hair growth or hair formation controlling agents” (priority 2000, published 2003).
Like-named read-outs stand apart in the source and are kept apart here.

Columns and labels:
[1] = molecular target: EP4 Receptor (Oryctolagus cuniculus, UniProt Q28691); assay: Magnus experiment using rabbit saphenous vein (relaxation of 40 mM KCl contraction); format: cell-based
Protocol: Magnus Experiment Using Rabbit Saphenous Vein
Investigation of agonistic activity to EP4 was carried out by an improved method of the method of Lydford et al. (S. J. Lydford et al., Br. J. Pharmacol. 117, 13-20 (1996)) using rabbit saphenous veins. That is, each rabbit was deeply anesthetized by administering pentobarbital (50 mg/kg) to auricular vein, and then sacrificed by bleeding by cutting carotid artery. Saphenous vein was carefully but quickly removed and transferred into Krebs solution (NaCl 118.1 mM, KCl 5.31 mM, MgSO4 1.01 mM, CaCl2 3.52 mM, NaH2PO4 1.09 mM, NaHCO3 25.0 mM, glucose 9.99 mM, pH 7.4) which was preliminarily saturated with 95% O2+5% CO2 mixed gas. The connective tissue and the fatty tissue of each saphenous vein were isolated using a scissors for ophthalmology to prepare a ring preparation with a width of about 4 mm. This ring preparation was mounted on a hook for blood vessels, and then suspended in a Magnus tube filled with Krebs solution aerated with 95% O2+5% CO2 mixed gas and kept at 37° C. The isometric tension of each blood vessel was recorded on a recorder through an isometric transducer. To each blood vessel, a base tension of 1.0 g was applied and the blood vessel tissue was stabilized for about 30 minutes until the baseline became stabilized. After the baseline became stable, the blood vessel was contracted with 40 mM KCl, and the shrinkage and washing were repeated until the contraction became stable. After the contraction with KCl became stable, a thromboxane antagonist S-145 (1000 nM) was applied previously and then cumulative application experiments of Compounds 1 to 7 were carried out. More specifically, the reactivity to PGE2 which was a positive control drug was measured, and after washing, the action of each compound was studied. The effectiveness of each drug was expressed in terms of the concentration (EC50) at which the rate of relaxation of the test drug to the contraction by 40 mM KCl was 50%. EC50 value was calculated by plotting logarithm of the concentration of each drug along the abscissa and plotting the rate of relaxation with respect to the contraction by 40 mM KCl along the ordinate, and by determining the concentration at which the height of contraction was 50% based on the linear area of the concentration-reaction curve in each experiment. [drawing 39]

[2] = test system: epilated rabbit models; assay: Hair-growth/generation test in epilated rabbits, subcutaneous, once a day from 2nd to 20th day; format: in vivo; settings: for Length of New Hair (mm) / Rate of Hair-generated Area (%): mean ± standard error
Protocol: (§1) Hair-Growing or Hair-Generating Action
(§2) The test was carried out as follows. The hair on the back of each rabbit was removed with an electric clipper and evacream was applied for a short time to the back so as to epilate the back. After wiping the epilated region with water, test compound was subcutaneously administered to the back at a dose of 0.25 ml/kg (dissolved in 0.9% sodium chloride solution) once a day from the second day to 20th day after epilation. The state of generation of hair was observed and the length of the hair was measured.

[3] = molecular target: T1, human PGE2 receptor subtype EP4 (Homo sapiens, UniProt P35408); assay: Receptor binding experiment using PGE2 receptor subtype-expressing cells (3H-PGE2 displacement, membrane fractions); settings: human PGE2 receptor subtypes EP2, EP3, EP4
T1 construct: expressed in transfected cells; host or cells: COS-7 cells, transient expression; membrane specimens
T1 sequence (P35408 whole entry): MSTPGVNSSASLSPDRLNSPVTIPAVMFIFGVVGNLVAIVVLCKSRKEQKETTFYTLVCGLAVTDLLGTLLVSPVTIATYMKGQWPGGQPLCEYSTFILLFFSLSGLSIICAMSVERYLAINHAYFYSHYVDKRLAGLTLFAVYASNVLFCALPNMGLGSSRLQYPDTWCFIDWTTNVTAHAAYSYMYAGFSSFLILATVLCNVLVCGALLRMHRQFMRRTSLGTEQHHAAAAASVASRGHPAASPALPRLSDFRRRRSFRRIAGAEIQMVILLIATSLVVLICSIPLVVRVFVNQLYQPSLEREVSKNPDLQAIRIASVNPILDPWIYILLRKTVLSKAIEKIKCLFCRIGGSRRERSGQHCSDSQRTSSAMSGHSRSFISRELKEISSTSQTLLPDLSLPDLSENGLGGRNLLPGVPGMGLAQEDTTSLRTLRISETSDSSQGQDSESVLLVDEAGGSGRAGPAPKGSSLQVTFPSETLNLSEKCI
Protocol: Receptor Binding Experiment Using PGE2 Receptor Subtype-expressing Cells
The compound of the Formula (I) described above was tested for its selective binding activity to EP4 receptor by using PGE2 receptor subtype-expressing cells.
According to the reported method (Breyer,R. M. et al., J. Biol. Chem. 269,6163-6169(1994)), cloned human PGE2 receptor subtypes (EP3 and EP4) were transiently expressed by COS-7 cells. EP2 was stably expressed by CHO cells. These cells were prepared into membrane specimens. Each of the prepared membrane fractions (10 μg/tube) was incubated with a reaction solution containing ^3H—PGE2 at 30° C. for 1 hour. The reaction was terminated by iced buffer (10 mM MES(pH 6.0), 10 mM MgCl2, 1 mM EDTA), and the resultant was subjected to filtration by means of suction under reduced pressure to trap the bound ^3H-PGE2 on a glass filter (GF/C), followed by measurement of the radioactivity with a liquid scintillation counter.
The Kd value was determined from Scatchard plot according to the conventional method. Non-specific binding was determined in terms of the amount of bound radioactivity in the presence of an excess amount (5 μM) of non-labeled PGE2. […]
The dissociation constant Ki (nM) of Compound 1 was calculated according to the following equation: […]

[4] = test system: epilated rabbit models; assay: Hair-growth/generation test in young epilated rabbits (8 weeks old), subcutaneous, once a day from 2nd to 7th day; format: in vivo, New Zealand White rabbits; settings: young rabbits 8 weeks old
Protocol: as §1
as §2, with “removed” for “removed with an electric clipper”, “ml/kg” for “ml/kg (dissolved in 0.9% sodium chloride solution)”, “7th” for “20th”, “The” for “The state of generation of hair was observed and the”

[5] = relaxation of contraction by 40 mM KCl, thromboxane antagonist S-145 (1000 nM) present, read-out: EC50 (nM), agonistic activity to EP4 receptor in rabbit saphenous vein relaxation reaction

EP4 Receptor, sequence (Q28691 whole entry): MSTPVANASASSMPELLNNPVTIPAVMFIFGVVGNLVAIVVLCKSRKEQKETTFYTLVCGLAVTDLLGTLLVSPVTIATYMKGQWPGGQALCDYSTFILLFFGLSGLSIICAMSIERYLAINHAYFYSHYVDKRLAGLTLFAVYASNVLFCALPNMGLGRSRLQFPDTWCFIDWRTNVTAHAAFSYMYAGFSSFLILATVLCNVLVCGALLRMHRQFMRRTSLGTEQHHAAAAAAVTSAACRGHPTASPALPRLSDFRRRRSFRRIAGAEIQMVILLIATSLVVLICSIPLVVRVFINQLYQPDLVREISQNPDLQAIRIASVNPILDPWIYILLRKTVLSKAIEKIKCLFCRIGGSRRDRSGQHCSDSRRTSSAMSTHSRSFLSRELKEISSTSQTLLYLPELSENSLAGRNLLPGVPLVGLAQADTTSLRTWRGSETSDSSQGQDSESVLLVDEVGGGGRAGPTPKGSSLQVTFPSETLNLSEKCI

O=C(O)CCc1cccc2c1O[C@H]1C[C@@H](O)[C@H](/C=C/[C@@H](O)CC3CCCCC3)[C@@H]21 [Compound 1]
EC50 [1]: 6 nM
Rate of Rabbits with 50% or More Hair-Generated Area ([2]; 0.03 mg/kg s.c., 20th day): 1/4
Length of New Hair (mm) ([2]; 0.03 mg/kg s.c., 20th day): 6.0 ± 0.6 mm
Rate of Hair-generated Area (%) ([2]; 0.03 mg/kg s.c., 20th day): 15.8 ± 13.2%
Rate of Hair-generated Area (%) ([2]; 0.1 mg/kg s.c., 20th day): 48.8 ± 13.6%
Length of New Hair (mm) ([2]; 0.1 mg/kg s.c., 20th day, p < 0.05 vs. control): 7.3 ± 0.5 mm
length of the new hair (in words) ([2]; epilated rabbits, s.c. once a day): increased
selectivity to EP4 receptor subtype (binding abilities to other receptor subtypes are low) [3]: high selectivity

OC(C=CC1C(O)CC2Oc3c(CCc4nnn[nH]4)cccc3C21)CC1CCCCC1 (stereo not shown) [Compound 2]
EC50 [1, 5]: 3 nM
Length of New Hair (mm) ([4]; 0.03 mg/kg s.c., 7th day, mean ± standard error, p < 0.05 vs. control): 11.7 ± 0.5 mm
length of the new hair (in words) ([4]; s.c. once a day): increased

O=C(O)C=Cc1cccc2c1OC1CC(O)C(C=CC(O)CC3CCCCC3)C21 (stereo not shown) [Compound 3]
EC50 [1]: 6 nM

CC(C)(Cc1ccccc1)C(O)C=CC1C(O)CC2Oc3c(CCC(=O)O)cccc3C21 (stereo not shown) [Compound 4]
EC50 [1]: 7 nM

CC(C)(C(O)C=CC1C(O)CC2Oc3c(OCC(=O)O)cccc3C21)C1CCCCC1 (stereo not shown) [Compound 5]
EC50 [1, 5]: 26 nM

O=C(O)CSc1cccc2c1OC1CC(O)C(C=CC(O)CC3CCCCC3)C21 (stereo not shown) [Compound 6]
EC50 [1, 5]: 33 nM

O=C(O)CCc1cccc2c1OC1CC(O)C(C=CC(O)C(F)(F)C3CCCCC3)C21 (stereo not shown) [Compound 7]
EC50 [1]: 2 nM
